Measurements as given in patent US20230000869A1, “NOVEL ALK2 INHIBITORS AND METHODS FOR INHIBITING BMP SIGNALING” (The Brigham and Women's Hospital, Inc., priority 2017, published 2023).

Legend:
ALK2 = biological target: T1, ALK2 (Mus musculus, UniProt P37172); experiment: Luciferase reporter gene assay for ALK2 activity (C2C12 BRE-Luc SMAD1/5/8 reporter, BMP6 agonist); format: cell-based; details: BMP6 50 ng/mL
T1 construct: endogenous in cells; host or cells: C2C12-BRE (BRE-Luc reporter line, G418 selection)
T1 sequence (P37172 21-509): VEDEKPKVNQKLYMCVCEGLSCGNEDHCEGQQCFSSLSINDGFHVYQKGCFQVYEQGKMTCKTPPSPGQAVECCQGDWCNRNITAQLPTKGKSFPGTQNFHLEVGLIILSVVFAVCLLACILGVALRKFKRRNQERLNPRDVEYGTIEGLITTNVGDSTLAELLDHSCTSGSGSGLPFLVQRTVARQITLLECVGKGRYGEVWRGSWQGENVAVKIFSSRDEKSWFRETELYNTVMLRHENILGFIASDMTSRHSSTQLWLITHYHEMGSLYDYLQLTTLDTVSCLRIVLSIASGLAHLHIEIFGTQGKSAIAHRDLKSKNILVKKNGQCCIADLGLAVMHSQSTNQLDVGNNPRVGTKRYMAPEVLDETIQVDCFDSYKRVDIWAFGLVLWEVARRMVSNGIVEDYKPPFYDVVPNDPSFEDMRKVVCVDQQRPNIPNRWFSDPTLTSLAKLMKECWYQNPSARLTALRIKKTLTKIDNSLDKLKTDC
Description: (§1) All cell lines were cultured in DMEM, supplemented with […] and 1% Pen/Strep. All media reagents were obtained from Gibco. BMP6, BMP9, and TGFβ were obtained from R&D Systems. C2C12-BRE and HEK293T-SBE were kept in selection with 400 ug/mL G418 from Invivogen.
(§2) In this reporter gene cell based ALK2 and TGFβ assay, the C2C12 cell line was employed for the measurement of ALK2 activity, using a BRE-Luc SMAD1/5/8 reporter and BMP6 as the agonist. The HEK293T cell line was employed to measure TGFβ activity, using a SBE-Luc SMAD2/3 reporter and TGFβ as the agonist. Luciferase reporter assays were read using Promega Steady-Glo Luciferase Assay System.
(§3) Cells were plated in 96 well white clear bottom assay plates at 10 k cells/well for C2C12-BRE, 15 k cells/well for HEK293-SBE in DMEM containing 2% FBS 1% P/S. Cells were given a minimum of 4 hours in incubator at 37° C./5% CO2 to adhere prior to further treatment. Compounds were diluted in DMSO to a 10-point dilution curve and added to the plate to reach the following final concentrations: 10000, 3000, 1000, 300, 100, and 30 nM in the HEK293-SBE assay and 1000, 300, 100, 30, 10, 3, 1, 0.3 nM in the C2C12-BRE assay. Negative and positive control wells received 2 μL DMSO as vehicle treatment. Plates were returned to incubator for 45 minutes and then BMP6 and TGFB were added to a final concentration of 50 ng/mL and 5 ng/mL, respectively. Plates were returned to the incubator and left overnight. After a minimum of 18 hours post BMP6/TGFβ addition, the plates were read using Promega Steady-Glo Luciferase Assay System. A 1:1 mixture of prepared steady-glo and phenol free DMEM was prepared, and 50 μL/well was added to the assay plates whose media had been flicked off. Plates were given 10 minutes post steady-glo addition before luminescence was read on a Spectramax M5e microplate reader. Negative control wells were averaged and subtracted from all other wells on the plate. Inhibition was calculated as the percent of signal loss compared to the averaged positive control wells.

TGFβ = experiment: Luciferase reporter gene assay for TGFβ activity (HEK293T SBE-Luc SMAD2/3 reporter, TGFβ agonist); format: cell-based; details: Homo sapiens, HEK-293T, TGFβ 5 ng/mL
Description: as §1, §2, §3

IC50 (ALK2) | IC50 (TGFβ) | Compound
17 nM | 138 nM | Cc1cc2c(-c3cnn4cc(N5CCC(N6CCN(C)CC6)CC5)cnc34)ccnc2cc1F [Compound 266]
15 nM | 771 nM | Cc1ccc2nccc(-c3cnn4cc(N5CCC(N6CCOCC6)CC5)cnc34)c2c1 [Compound 341]
37 nM | < 10 nM | CN1CCN(C2CCN(c3cnc4c(-c5ccnc6cc(F)c(O)cc56)cnn4c3)CC2)CC1 [Compound 242]
55 nM | > 1000 nM | CNc1ccc2nccc(-c3cnn4cc(N5CCC(N6CCN(C)CC6)CC5)cnc34)c2c1 [Compound 279]
13 nM | > 3000 nM | CN1CCN(C2CCN(c3cnc4c(-c5ccnc6[nH]ccc56)cnn4c3)CC2)CC1 [Compound 247]
94 nM | 324 nM | COc1cc2c(-c3cnn4cc(N5CCN(CC(C)(C)O)CC5)cnc34)ccnc2cc1F [Compound 200]
18 nM | > 1000 nM | Cc1cc2nccc(-c3cnn4cc(N5CCC(N6CCN(C)CC6)CC5)cnc34)c2s1 [Compound 226]
2 nM | > 3000 nM | CN1CCN(C2CN(c3cnc4c(-c5ccncc5)cnn4c3)C2)CC1 [Compound 313]
33 nM | 60 nM | Cc1cc(-c2cnn3cc(N4CC(N5CCN(C)CC5)C4)cnc23)c2cc(F)cc(F)c2n1 [Compound 311]
26 nM | > 3000 nM | COc1cc2c(-c3cnn4cc(N5CCN(c6ccnc(C)n6)CC5)cnc34)ccnc2cc1F [Compound 203]
159 nM | 595 nM | Cc1cc2c(-c3cnn4cc(N5CC(N6CCN(C)CC6)C5)cnc34)ccnc2cc1F [Compound 308]
47 nM | > 2000 nM | COc1cc2c(-c3cnc4cc(N5CC(N6CCN(C)CC6)C5)cnn34)ccnc2cc1F [Compound 335]
92 nM | > 1000 nM | CN1CCN(C2CCN(c3cnc4c(-c5ccnc6ccc(Cl)cc56)cnn4c3)CC2)CC1 [Compound 241]
12 nM | 229 nM | CN1CCN(C2CCN(c3cnc4c(-c5ccnc6c(F)cccc56)cnn4c3)CC2)CC1 [Compound 260]
19 nM | 916 nM | CN1CCN(C2CCN(c3cnc4c(-c5ccnc6ncccc56)cnn4c3)CC2)CC1 [Compound 261]
372 nM | > 3000 nM | COc1cc2c(-c3cnc4cc(N5CCC(N6CCN(C)CC6)CC5)ccn34)ccnc2cc1F [Compound 351]
70 nM | 589 nM | Cc1cc2nccc(-c3cnn4cc(N5CCC(N6CCN(C)CC6)CC5)cnc34)c2cc1C [Compound 233]
197 nM | 964 nM | CNC(=O)c1cc(-c2cnn3cc(N4CCC(N5CCN(C)CC5)CC4)cnc23)ccn1 [Compound 258]
18 nM | < 20 nM | Cc1cc2c(-c3cnn4cc(N5CC(N6CCOCC6)C5)cnc34)ccnc2cc1F [Example 301]
23 nM | 498 nM | COc1cc2c(-c3cnn4cc(N5CCN(C6CN(C)C6)CC5)cnc34)ccnc2cc1F [Compound 199]
> 3000 nM | > 3000 nM | CC(=O)Nc1ccc2nccc(-c3cnn4cc(N5CCC(N6CCN(C)CC6)CC5)cnc34)c2c1 [Compound 281]
22 nM | < 20 nM | Cc1cc(-c2cnn3cc(N4CC(N5CCN(C)CC5)C4)cnc23)c2cccc(F)c2n1 [Compound 316]
12 nM | 63 nM | COc1cc2c(-c3cnn4cc(N5CCC6(CC5)CN(C)C6)cnc34)ccnc2cc1F [Compound 290]
33 nM | 116 nM | COc1cc2c(-c3cnn4cc(N5CCC6(CCN(C)CC6)CC5)cnc34)ccnc2cc1F [Compound 217]
477 nM | 975 nM | Cc1cc(-c2cnn3cc(N4CC(OCCN(C)C)C4)cnc23)c2ccccc2n1 [Compound 350]
25 nM | > 1000 nM | CN1CCN(C2CCN(c3cnc4c(-c5ccnc6ccc(C(F)(F)F)cc56)cnn4c3)CC2)CC1 [Compound 235]
507 nM | 359 nM | COc1cc2c(-c3cnn4cc(N5CCN(c6ccncc6)CC5)cnc34)ccnc2cc1F [Compound 202]
26 nM | > 2000 nM | CN1CCN(C2CCN(c3cnc4c(-c5ccnc6ccc(N(C)C)cc56)cnn4c3)CC2)CC1 [Compound 280]
159 nM | 595 nM | Cc1ccc2nccc(-c3cnn4cc(N5CC(c6ccncc6)C5)cnc34)c2c1 [Example 292]
153 nM | > 1000 nM | COc1cc(-c2cnn3cc(N4CCC(N5CCN(C)CC5)CC4)cnc23)ccn1 [Compound 272]

The next lines start with the compound.

Compound | IC50 (ALK2) | IC50 (TGFβ)
COc1cc2c(-c3cnn4cc(N5CCC(N6CCN(C)CC6)CC5)cnc34)ccnc2cc1C [Compound 29] | 83 nM | 384 nM
CN1CCN(C2CCN(c3cnc4c(-c5ccnc6cc7c(cc56)OCO7)cnn4c3)CC2)CC1 [Compound 18] | 29 nM | 176 nM
Cc1cc(-c2cnn3cc(N4CCN(C5CCNCC5)CC4)cnc23)c2ccccc2n1 [Compound 23] | 145 nM | 88 nM
Cc1cc(-c2cnn3cc(N4CCC(N5CCCN(C)CC5)CC4)cnc23)c2ccccc2n1 [Compound 62] | 90 nM | 37 nM
COc1cc2c(-c3cnn4cc(N5CCC(N)CC5)cnc34)ccnc2cc1F [Compound 186] | 57 nM | 370 nM
Cn1cc(-c2cnn3cc(N4CCC(N5CCOCC5)CC4)cnc23)c2ccccc2c1=O [Compound 32] | 25 nM | 37 nM
COc1cc2c(-c3cnn4cc(N5CCC(N6CCC(C)(N)CC6)CC5)cnc34)ccnc2cc1F [Compound 51] | 60 nM | 410 nM
CN1CCN(C2CCN(c3cnc4c(-c5cnn6ccccc56)cnn4c3)CC2)CC1 [Compound 26] | 334 nM | 118 nM
NC(=O)c1cccc2c(-c3cnn4cc(N5CCC(N6CCOCC6)CC5)cnc34)cccc12 [Compound 13] | 56 nM | 261 nM
CN1CCN(C2CCN(c3cnc4c(-c5cn[nH]c5)cnn4c3)CC2)CC1 [Compound 14] | 186 nM | > 3000 nM
NC(=O)c1ccc(-c2cnn3cc(N4CCC(N5CCOCC5)CC4)cnc23)c2ccccc12 [Compound 12] | 87 nM | 458 nM
COc1cc2c(-c3cnn4cc(N5CCC(N6C[C@H]7C[C@@H]6CN7C)CC5)cnc34)ccnc2cc1F [Compound 55] | 9 nM | 268 nM
COc1cc2c(-c3cnn4cc(N5CCC(N6CCN(C)CC6)C(F)C5)cnc34)ccnc2cc1F (stereo not drawn) [Compound 47] | 76 nM | 483 nM
Cc1cc(-c2cnn3cc(N4CCN(C)CC4)cnc23)c2ccccc2n1 [Compound 196] | 935 nM | 126 nM
COc1cc2c(-c3cnn4cc(N5CCC(N6CCNCC6)CC5)cnc34)ccnc2cc1F [Compound 39, 7-fluoro-6-methoxy-4-[6-(4-piperazin-1-yl-1-piperidyl)pyrazolo[1,5-a]pyrimidin-3-yl]quinoline] | 11 nM | 69 nM
COc1ccc2nccc(-c3cnn4cc(N5CCC(N6CCOCC6)CC5)cnc34)c2c1 [Compound 30] | 37 nM | 120 nM
COc1cc2c(-c3cnn4cc(N5CCC(N6CCOCC6)CC5)cnc34)ccnc2cc1F [Compound 16] | 8 nM | 20 nM
COc1cc2c(-c3cnn4cc(N5CCC(N6CCN(C)CC6)C5)cnc34)ccnc2cc1F (stereo not drawn) [Compound 48] | 50 nM | 914 nM
Cc1cc(-c2cnn3cc(N4CCN(CC(C)(C)O)CC4)cnc23)c2ccccc2n1 [Compound 198] | 300 nM | 283 nM
COc1cc2c(-c3cnn4cc(N5CCNCC5=O)cnc34)ccnc2cc1F [Compound 326] | > 1000 nM | > 3000 nM
Cc1cc(-c2cnn3cc(N4CCN(C5CCOCC5)CC4)cnc23)c2ccccc2n1 [Compound 22] | 261 nM | 86 nM
